Assay results from article PMC10622577, “Structural basis for stabilisation of the RAD51 nucleoprotein filament by BRCA2” (Nature Communications, 2023).

Columns and labels:
[1] = system: RAD51 S181C; assay: RAD51–TR2 disulphide cross-linking, SDS-PAGE; design: species or system human; details: RAD51 S181C 10 μM, 0.5 μM ssDNA, 1.25 μM Cy3-TR2, 2 mM hydrogen peroxide 5 min; pH 7.5; non-reducing SDS-PAGE; repeated three times
Text: To further validate our model of the RAD51–TR2 interaction, we mutated RAD51 S181 to a cysteine to enable disulphide formation with TR2 C3304, which would support its presence at the TR2-RAD51 interface, as identified in the structure.
Fig. 5 Structure-guided BRCA2 TR2 cross-linking to RAD51. A Drawing of the RAD51–TR2 interface, highlighting that amino acids BRCA2 C3304 and RAD51 S181 are spatially close, so that the RAD51 S181C mutant can form a disulphide bridge with C3304 in the TR2 peptide. B SDS-PAGE analysis of cross-linking reactions between RAD51 S181C and TR2 in the presence of hydrogen peroxide. Wild-type RAD51 and the reducing agent DTT were used as controls. Protein bands were visualised with Coomassie Blue. C Same experiment as in B, visualised with 532 nm excitation of the Cy3-labelled TR2 peptide. Experiment was repeated three times. Source data are provided as a Source Data file.
Cross-linking reactions were prepared in buffer: 25 mM HEPES pH 7.5, 150 mM NaCl, 2 mM ATP, 5 mM CaCl2, supplemented with 0.5 μM ssDNA. WT or S181C RAD51 was added to a final concentration of 10 μM and incubated for 15 minutes at room temperature. […] Each crosslinked sample was analysed by SDS-PAGE, using gel-loading dye with DTT (reducing) or without DTT (non-reducing), on a 12% Bis-Tris SDS-PAGE gel. […]

[2] = system: RAD51 NPFs on mSA-capped DNA; assay: cryo-electron micrographs, bundling of RAD51 NPFs on mSA-capped DNA; design: species or system human; details: 1:0.5 molar ratio of TR2 peptide and mSA; ss- and dsDNA; two independent repeats
Text: To understand the structural basis for the association of the BRCA2 C-terminus with the RAD51 nucleoprotein filament, we sought to determine the structure of a RAD51-DNA-TR2 filament by high-resolution cryo-electron microscopy (cryoEM). […] Individual filaments within a bundle appeared to be in translational register relative to each other as it was possible to obtain well-resolved 2D classes of filament pairs (Supplementary fig. 5A, Supplementary Table 1). Filament aggregation induced by TR2 complicated picking of individual filament particles and prevented structural determination by cryoEM. We therefore sought to develop a method to prepare RAD51 NPFs in the presence of TR2 peptide without causing filament bundling. We reasoned that bundling might be alleviated by capping the DNA substrate with a bulky tag, to prevent filament aggregation by steric interference. We therefore prepared ss- and dsDNA substrates with a biotin tag at either one end or both ends, that could be bound by monomeric streptavidin (mSA) (Supplementary Fig. 5B, Supplementary Table 1).
Fig. 2 BRCA2 TR2 induces bundling of RAD51 nucleoprotein filaments. A Cryo-electron micrographs of RAD51 NPFs formed on ssDNA and dsDNA in the presence of 1:0.5 molar ratio of TR2 peptide. Extensive NPF aggregation into bundles of aligned filaments is clearly visible (examples marked with dashed white boxes). Two independent repeats. […]

DDQKNCKKRRALDFLSRLPLPPPVSPICTFVSPAAQKAFQPPRSCGTKY [TR2, BRCA2 TR2 peptide spanning amino acids 3260 to 3308]
formation of crosslinked RAD51–TR2 species [1]: readily detect formation of a crosslinked RAD51–TR2 species
bundling of RAD51 NPFs on mSA-capped DNA [2]: no bundling in the presence of TR2
